Key:
[1] = biological target: T1, alkaline phosphatase (Bos taurus, UniProt P19111); experiment: Dephosphorylation of phosphocarvedilol by alkaline phosphatase (HPLC); assay type: biochemical; conditions: alkaline phosphatase 1390 Units, overnight at 37° C., TRIS pH 8.1
T1 construct: purchased Sigma P0114
Protocol: The dried residue was reconstituted in a 1 mL solution of TRIS (pH 8.1, 0.05M) and NaCl (0.1M) for dephosphorylation with alkaline phosphatase. Dephosphorylation was initiated by adding 10 μL (1390 Units) of alkaline phosphatase (Sigma P0114) and incubating overnight at 37° C. 10 μL aliquots were removed and diluted to 100 μL in mobile phase before analyzing by injecting onto the HPLC column (as described above) in 20 μL amounts. After treatment with the alkaline phosphatase, a carvedilol peak with a retention time of about 14.95 minutes was detected.

[2] = system: patients with Post Traumatic Stress Disorder (PTSD); experiment: Clinical trial of carvedilol versus placebo in the treatment of PTSD (efficacy scales); assay type: in vivo, human; design: key to Davidson Trauma Scale (DTS) change score / mean change score (DTS): change in DTS total score (34-item patient-rated, max 136); key to Insomnia Severity Index (ISI) change score: change in ISI score (self-rated 7-item scale, max 28); key to Davidson Trauma Scale (DTS) change score, mean change (SD): mean (SD) change in DTS total score (max 136); conditions: for Clinician Administered PTSD Scale (CAPS II) change score: completer only analysis
Source text: The efficacy of carvedilol was examined in a clinical trial using a parallel group, randomized, double-blind method with 50% of the outpatients receiving a flexible dose of alpha and beta blocker carvedilol for treatment of PTSD and the other 50% receiving a flexible close of matching placebo tablets. The trial consisted of a one week screening period followed by baseline symptom measurement and five weeks of PTSD pharmacotherapy. Patient assessments took place each week throughout the course of the trial. Patients between 18 and 70 years of age were eligible for enrollment. A minimum score of 60 was required on the Clinician Administered PTSD Scale (CAPS-II) at the screening visit and all patients met clinical criteria for PTSD in accordance with the Diagnostic and Statistical Manual IV and confirmed by the Mini International Neuropsychological Interview (MINI). Eighty-three subjects were enrolled and randomized to carvedilol or placebo. […] The final efficacy analysis included 38 patients allocated to carvedilol, and 39 patients allocated to placebo. All of the patients, study coordinators, and principal investigators were blinded from the patient treatment allocation. Patients were randomly assigned to kits containing carvedilol or placebo at the baseline visit. At the baseline visit, all patients were titrated to one dose of 3.125 mg carvedilol or placebo in the morning and an additional dose in the evening for the first week of the trial (6.25 mg carvedilol per day). At the discretion of the investigator the dose of carvedilol or placebo could be increased to a maximum of two tablets (6.250 mg carvedilol) in the morning and two tablets (6.250 mg carvedilol) in the evening during the following visit (week 1). At the week 2 visit the investigator could increase the dose of carvedilol or placebo to a maximum of 5 pills daily (15.625 mg carvedilol per day) based on patient tolerability and treatment response. After the second visit investigators were encouraged to maintain patient dose throughout the remainder of the five week trial although they were allowed to decrease the dose in the event that tolerability issues arose. Although a minimum score of 60 on the CAPS-II was required at the screening visit as entry criteria, the Davidson Trauma Scale (DTS) was used as primary outcome measurement. The DTS is a 34-item patient rated scale with a maximum total score of 136. The DTS is designed to measure frequency and severity of three subtypes of PTSD symptoms: intrusion, avoidance and hyperarousal. Patients completed the DTS at the baseline visit and at each visit throughout the course of the trial. Secondary outcome measures included the Insomnia Severity Index (ISI), the Clinician Global Impressions (CGI) Scale, and each of the three DTS subscales. The ISI is a self-rated 7-item scale (maximum score=28) designed to measure insomnia during clinical research. The ISI was completed at each visit throughout the trial. The CGI was also completed during each visit. As an additional secondary outcome, the change in CAPS-II score was evaluated from the screening visit to the last trial visit for patients that completed the trial. The trial data analysis was designed to investigate the hypothesis that carvedilol would provide relief from symptoms for patients clinically diagnosed with PTSD. To evaluate this possibility, an analysis of covariance (ANCOVA) test was conducted on the primary outcome variable and a series of independent samples t tests were conducted on secondary outcome variables. Each statistical test was conducted using SPSS version 19.0 (IBM). All patients that completed the baseline visit and at least one follow up measurement were included in the analysis. […] Therefore, the final completed measurement of PTSD symptoms was used as the end data point in the event that patients terminated from the trial early. […]

[3] = Clinical trial of carvedilol versus placebo in PTSD: adverse events, blood pressure, heart rate; assay type: in vivo, human
Source text: The efficacy of carvedilol was examined in a clinical trial using a parallel group, randomized, double-blind method with 50% of the outpatients receiving a flexible dose of alpha and beta blocker carvedilol for treatment of PTSD and the other 50% receiving a flexible close of matching placebo tablets. The trial consisted of a one week screening period followed by baseline symptom measurement and five weeks of PTSD pharmacotherapy. Patient assessments took place each week throughout the course of the trial. At the baseline visit, all patients were titrated to one dose of 3.125 mg carvedilol or placebo in the morning and an additional dose in the evening for the first week of the trial (6.25 mg carvedilol per day). At the discretion of the investigator the dose of carvedilol or placebo could be increased to a maximum of two tablets (6.250 mg carvedilol) in the morning and two tablets (6.250 mg carvedilol) in the evening during the following visit (week 1). At the week 2 visit the investigator could increase the dose of carvedilol or placebo to a maximum of 5 pills daily (15.625 mg carvedilol per day) based on patient tolerability and treatment response. After the second visit investigators were encouraged to maintain patient dose throughout the remainder of the five week trial although they were allowed to decrease the dose in the event that tolerability issues arose.

[4] = Pharmacokinetic properties of carvedilol by oral dosage form and transdermal patch (Example 6); assay type: in vivo, human
Protocol: The pharmacokinetic properties of orally and transdermal patch delivered carvedilol can be measured in a human subject or animal model using standard procedures. In brief, a carvedilol oral dosage form of between 5-15 mg can be administered to a human subject in a tablet or capsule. A similar dosage can be administered to a human subject from a transdermal patch that is formulated and evaluated for skin permeation (such as as described by Ubaidulla et al., 2007). After administration of carvedilol, blood samples are drawn from the subject at time intervals (such as 1, 2, 3, 5, 8, 12, and 24 hours), plasma is separated by centrifugation, and plasma samples are stored at −70° C. until analyzed. The plasma carvedilol concentration is measured by reverse phase-high performance liquid chromatography (Ubaidulla et al., 2007).
The plasma concentration of carvedilol at different time intervals is subjected to pharmacokinetic analysis to calculate various parameters: maximum plasma concentration (Cmax), time to reach maximum concentration (Tmax), and area under the plasma concentration-time curve (AUC0→24) as described (Ubaidulla et al., 2007). The values of Cmax and Tmax are read directly from the arithmetic plot of time vs plasma concentration of carvedilol. The AUC is calculated by using the trapezoidal rule. […]

[5] = system: male Sprague-Dawley rats; experiment: Escape/avoidance behavior after tailshock stress (Example 1); assay type: in vivo, rat; conditions: compared to animals that did not receive medication
Source text: Subjects are male, Sprague-Dawley (SD) rats. They are approximately 60-days-old and 300-350 g at the time of testing. They are maintained on ad lib food and water except during the stress and escape/avoidance sessions. Subjects are maintained on a 12:12 light/dark cycle, with lights on at 0700. […] The animals that receive shocks are restrained in plastic tubes (Harvard Apparatus, Inc, Holliston, Mass., USA) and have tail electrodes attached. The single shock session consists of forty 3-s, 2-mA tailshocks, presented on a variable time (VT) 3-min schedule, making the shock session approximately 2 h in duration. Escape/avoidance sessions are conducted in 4 operant chambers (Coulbourn, Inc, Allentown, Pa., USA). The chambers are 30.5 cm wide×25.4 cm deep×30.5 cm high and have a lever mounted on one wall. Subjects are allowed approximately 1 min to explore the chamber before the session begins. The trial begins with a warning signal and houselight. […] 60 s of the warning signal, they receive 1.0-mA footshock through the grid floor. […] A […] shock is classified as an “escape”, while a response that occurred during the initial 60 s of the warning signal before the shock is classified as an “avoidance.” The number of escape and avoidance responses by hour across the session, percent avoidance, and the number of leverpresses during the safety period (a putative measure of anxiety) are analyzed. […]

[6] = cited from earlier work
[7] = in vivo; cited from earlier work
[8] = low solubility and low absorption; cited from earlier work
[9] = males and females that were not veterans
[10] = males and females that were not veterans (n=31)

T1 sequence (P19111 20-506): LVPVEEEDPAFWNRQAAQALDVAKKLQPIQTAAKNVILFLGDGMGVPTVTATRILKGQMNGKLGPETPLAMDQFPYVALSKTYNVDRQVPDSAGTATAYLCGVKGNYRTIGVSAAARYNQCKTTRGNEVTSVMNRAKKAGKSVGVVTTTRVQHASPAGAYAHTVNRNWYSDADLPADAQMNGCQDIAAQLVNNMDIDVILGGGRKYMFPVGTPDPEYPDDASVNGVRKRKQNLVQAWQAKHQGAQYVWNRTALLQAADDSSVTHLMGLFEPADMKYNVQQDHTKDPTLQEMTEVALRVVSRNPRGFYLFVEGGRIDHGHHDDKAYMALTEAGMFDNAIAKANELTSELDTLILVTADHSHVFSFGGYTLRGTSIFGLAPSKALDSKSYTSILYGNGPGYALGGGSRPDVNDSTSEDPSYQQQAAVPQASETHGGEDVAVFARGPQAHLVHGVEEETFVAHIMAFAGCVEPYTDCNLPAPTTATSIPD

SMILES: COc1ccccc1OCCNCC(COc1cccc2[nH]c3ccccc3c12)OP(=O)([O-])[O-].[Na+].[Na+] (stereo not drawn)
- generation of carvedilol by enzymatic dephosphorylation (HPLC) [1]: the carvedilol HPLC peak reappeared

SMILES: COc1ccccc1OCCNCC(O)COc1cccc2[nH]c3ccccc3c12 (racemic) [carvedilol, (±) 1-(9H-carbazol-4-yloxy)-3-[[2(2-methoxyphenoxy)ethyl]amino]-2-propanol]
- mean change score (DTS) ([2]; 15 female assault victims (physical or sexual assault)): −31.8
- mean DTS change score ([2]; all patients assigned to carvedilol (n=38), baseline to final visit, LOCF, 6.25-15.625 mg per day, five weeks): −24.6 (SD±23.8)
- effect size d, change score, carvedilol vs placebo ([2]; female assault victims): 0.95
- effect size d, DTS Avoidance Subscale, carvedilol vs placebo [2, 9]: d = 0.21
- effect size d, DTS Hyperarousal Subscale, carvedilol vs placebo [2, 9]: d = 0.18
- effect size d, DTS Intrusiveness Subscale, carvedilol vs placebo [2, 9]: d = 0.61
- effect size d, DTS change score, carvedilol vs placebo [2, 9]: d = 0.36
- effect size d, Insomnia Severity Index, carvedilol vs placebo [2, 9]: d = 0.47
- DTS Avoidance Subscale change score [2, 10]: −8.7 ± 12.4
- DTS Hyperarousal Subscale change score [2, 10]: −7.7 ± 6.3
- DTS Intrusiveness Subscale change score [2, 10]: −8.8 ± 8.8
- Insomnia Severity Index (ISI) change score [2, 10]: −5.8 ± 6.8
- Davidson Trauma Scale (DTS) change score, mean change (SD) ([2]; males and females that were not veterans (n=31, 69% female), LOCF): −25.2 ± 25.3
- Clinician Administered PTSD Scale (CAPS II) change score [2, 9]: −20.6 ± 22.2
- Clinician's Global Impression (CGI) change score ([2]; men (n=17)): −1.2 ± 1.3
- DTS Avoidance Subscale change score ([2]; men (n=17)): −6.4 ± 8.3
- DTS Hyperarousal Subscale change score ([2]; men (n=17)): −6.6 ± 7.4
- DTS Intrusiveness Subscale change score ([2]; men (n=17)): −5.9 ± 7.5
- Insomnia Severity Index (ISI) change score ([2]; men (n=17)): −6.8 ± 6.7
- Davidson Trauma Scale (DTS) change score ([2]; men (n=17), baseline to final visit, LOCF): −18.8 (SD±19.1)
- Davidson Trauma Scale (DTS) change score ([2]; men (n=17), baseline to final visit, LOCF, listed as Carvedilol): −18.8 ± 19.1
- Clinician Administered PTSD Scale (CAPS II) change score ([2]; men, screening visit to week 7 final visit): −16.2 ± 19.0
- Clinician's Global Impression (CGI) change score ([2]; women (n=21)): −1.8 ± 0.2
- DTS Avoidance Subscale change score ([2]; women (n=21)): −10.4 ± 14.0
- DTS Hyperarousal Subscale change score ([2]; women (n=21)): −9.0 ± 8.9
- DTS Intrusiveness Subscale change score ([2]; women (n=21)): −9.9 ± 8.2
- Insomnia Severity Index (ISI) change score ([2]; women (n=21)): −5.1 ± 6.3
- Davidson Trauma Scale (DTS) change score ([2]; women (n=21), baseline to final visit, LOCF): −29.2 (SD±26.5)
- Davidson Trauma Scale (DTS) change score ([2]; women (n=21), baseline to final visit, LOCF, listed as Carvedilol): −29.2 ± 26.5
- Clinician Administered PTSD Scale (CAPS II) change score ([2]; women, screening visit to week 7 final visit): −21.7 ± 25.2
- patients that reported adverse events ([3]; 28 patients assigned to carvedilol): 66%
- mean change in diastolic blood pressure ([3]; baseline visit to end of study): −0.7 mm Hg
- mean change in heart rate ([3]; baseline visit to end of study): −3.7 beats/minute
- mean change in systolic blood pressure ([3]; baseline visit to end of study): −4.3±9.7 mm Hg
- adverse events that occurred in over 5% of carvedilol patients ([3]; human, in vivo): somnolence, headache and common cold
- Cmax, oral versus transdermal patch administration ([4]; oral and transdermal patch): approximately similar
- AUC, transdermal patch relative to oral administration ([4]; transdermal patch vs oral): 2.5 to 3 fold
- number of avoidance responses 24 h after tailshock [5]: decrease in the number of avoidance response 24 h later
- logarithmic partition coefficient, log octanol/buffer pH 7.4 [6]: 0.61±0.06
- plasma half-life [7]: approximately 6 hours
- Biopharmaceutics Classification System class [8]: Class 4
